According to ChEMBL document CHEMBL6153102, “Rational Design, Synthesis, and Biological Evaluation of Novel c-Met Degraders for Lung Cancer Therapy” (J Med Chem, 2025):
Calls of active or inactive are those of the source. The calls are words filed in the database; no cut-off is given here.

Legend:
[1] = target: T1, Protein cereblon/Hepatocyte growth factor receptor (Homo sapiens, UniProt P08581+Q96SW2); test: PROTAC activity at c-Met/CRBN in human EBC-1 cells assessed as reduction in c-Met mRNA level at 3.9 to 125 nM incubated for 24 hrs by qPCR analysis; assay type: cell-based; settings: dose 3.9-125 nM
Target sequence in this assay (P08581 25-1390 limits assumed): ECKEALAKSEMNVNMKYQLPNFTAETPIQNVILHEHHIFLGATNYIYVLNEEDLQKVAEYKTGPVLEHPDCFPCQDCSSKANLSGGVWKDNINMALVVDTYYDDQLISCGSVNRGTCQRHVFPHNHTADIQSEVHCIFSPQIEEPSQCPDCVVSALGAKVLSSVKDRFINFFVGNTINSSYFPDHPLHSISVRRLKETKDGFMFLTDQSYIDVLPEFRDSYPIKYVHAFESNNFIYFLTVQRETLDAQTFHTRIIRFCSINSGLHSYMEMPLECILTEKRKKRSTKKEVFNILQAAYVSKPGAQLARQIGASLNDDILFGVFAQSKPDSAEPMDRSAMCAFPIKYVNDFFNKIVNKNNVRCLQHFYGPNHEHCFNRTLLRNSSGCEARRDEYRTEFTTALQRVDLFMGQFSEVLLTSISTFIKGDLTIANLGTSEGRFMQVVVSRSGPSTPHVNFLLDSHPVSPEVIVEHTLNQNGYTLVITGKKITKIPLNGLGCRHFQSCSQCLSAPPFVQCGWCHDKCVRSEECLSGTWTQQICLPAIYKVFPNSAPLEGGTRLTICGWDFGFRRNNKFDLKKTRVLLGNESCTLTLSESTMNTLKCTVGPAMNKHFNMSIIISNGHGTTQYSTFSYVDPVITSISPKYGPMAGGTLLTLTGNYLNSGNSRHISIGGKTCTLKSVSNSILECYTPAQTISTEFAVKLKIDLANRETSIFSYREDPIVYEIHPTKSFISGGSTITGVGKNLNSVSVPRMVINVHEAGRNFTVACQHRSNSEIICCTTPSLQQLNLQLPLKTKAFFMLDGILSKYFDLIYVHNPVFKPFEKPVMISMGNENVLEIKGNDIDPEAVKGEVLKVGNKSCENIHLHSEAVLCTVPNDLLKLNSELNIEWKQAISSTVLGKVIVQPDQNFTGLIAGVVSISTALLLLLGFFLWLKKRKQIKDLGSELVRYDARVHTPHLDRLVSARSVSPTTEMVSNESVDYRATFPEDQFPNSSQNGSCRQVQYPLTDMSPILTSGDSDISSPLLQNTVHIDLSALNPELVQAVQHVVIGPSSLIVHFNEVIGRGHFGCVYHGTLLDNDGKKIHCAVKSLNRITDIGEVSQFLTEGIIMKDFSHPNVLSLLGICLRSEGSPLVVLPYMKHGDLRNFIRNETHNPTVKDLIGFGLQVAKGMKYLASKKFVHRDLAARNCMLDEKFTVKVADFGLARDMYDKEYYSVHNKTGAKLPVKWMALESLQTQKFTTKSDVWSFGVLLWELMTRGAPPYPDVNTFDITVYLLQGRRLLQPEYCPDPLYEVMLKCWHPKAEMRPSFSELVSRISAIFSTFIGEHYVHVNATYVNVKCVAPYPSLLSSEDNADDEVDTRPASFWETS
Target sequence in this assay (Q96SW2 whole entry partner): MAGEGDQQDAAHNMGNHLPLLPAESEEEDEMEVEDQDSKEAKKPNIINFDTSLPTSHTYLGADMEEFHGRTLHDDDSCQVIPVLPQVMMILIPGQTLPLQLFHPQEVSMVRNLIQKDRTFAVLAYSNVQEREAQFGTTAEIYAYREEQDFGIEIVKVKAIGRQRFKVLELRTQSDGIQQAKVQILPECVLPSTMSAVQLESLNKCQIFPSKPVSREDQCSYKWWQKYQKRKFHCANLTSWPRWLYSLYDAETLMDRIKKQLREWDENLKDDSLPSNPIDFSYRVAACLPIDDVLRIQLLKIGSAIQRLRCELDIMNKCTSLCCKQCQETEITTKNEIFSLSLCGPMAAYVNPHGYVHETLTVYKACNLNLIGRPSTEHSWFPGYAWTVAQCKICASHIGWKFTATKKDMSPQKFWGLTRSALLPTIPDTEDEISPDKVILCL

[2] = target: T1, Protein cereblon/Hepatocyte growth factor receptor; test: PROTAC activity at c-Met/CRBN in human EBC-1 cells assessed as reduction in AKR1C3 level at 15.6 nM incubated for 24 hrs by proteomics analysis; assay type: cell-based
Target sequence in this assay (P08581 25-1390 limits assumed): as the sequence (P08581 25-1390 limits assumed) above
Target sequence in this assay (Q96SW2 whole entry partner): as the sequence (Q96SW2 whole entry partner) above

[3] = target: T1, Protein cereblon/Hepatocyte growth factor receptor; test: PROTAC activity at c-Met/CRBN in human EBC-1 cells assessed as reduction in FOSL1 level at 15.6 nM incubated for 24 hrs by proteomics analysis; assay type: cell-based
Target sequence in this assay (P08581 25-1390 limits assumed): as the sequence (P08581 25-1390 limits assumed) above
Target sequence in this assay (Q96SW2 whole entry partner): as the sequence (Q96SW2 whole entry partner) above

[4] = target: T1, Protein cereblon/Hepatocyte growth factor receptor; test: PROTAC activity at c-Met/CRBN in human A549 cells assessed as induction of c-Met degradation at 100 nM incubated for 24 hrs by Western blotting analysis relative to control; assay type: cell-based
Target sequence in this assay (P08581 25-1390 limits assumed): as the sequence (P08581 25-1390 limits assumed) above
Target sequence in this assay (Q96SW2 whole entry partner): as the sequence (Q96SW2 whole entry partner) above

[5] = target: T1, Protein cereblon/Hepatocyte growth factor receptor; test: PROTAC activity at c-Met/CRBN in human EBC-1 cells assessed as induction of c-Met degradation incubated for 24 hrs by Western blotting analysis; assay type: cell-based
Hs746T = test: Antiproliferative activity against human Hs746T cells assessed as cell viability incubated for 72 hrs by MTT assay; assay type: functional, cell-based
EBC-1 [6] = test: Inhibition of colony formation in human EBC-1 cells at 3.9 to 15.6 nM incubated for 7 days by crystal violet staining based analysis; assay type: functional, cell-based; settings: dose 3.9-15.6 nM, time 7.0 day
EBC-1 [7] = test: Induction of apoptosis in human EBC-1 cells assessed as necrotic cells at 50 nM incubated for 24 hrs by Annexin V/FITC staining based flow cytometry analysis (reference value: 0.35 %); assay type: functional
[8] = Stability in human whole blood assessed as half life; assay type: ADME, tissue-based
[9] = AUC (0 to infinity) in Sprague-Dawley rat at 5 mg/kg, ip measured upto 24 hrs by LC-MS/MS analysis; assay type: ADME, organism-based; settings: in vivo

COc1ccc(C(=O)N2CCC3(CCN(C(=O)CN4CCC(COc5cnc(-c6cccc(Cn7nc(-c8cccc(C#N)c8)ccc7=O)c6)nc5)CC4)CC3)CC2)cc1N1CCC(=O)NC1=O
Activity [1]: Active | Activity [2]: Active | Activity [3]: Active | Activity [4]: inactive | DC50 [5]: 0.59 nM | Activity ([5]; dose 0.03 nM): Dose-dependent-effect | IC50 (Hs746T): 8 nM | inhibition (EBC-1 [6]): Active | Activity (EBC-1 [7]): 0.6% | half-life [8]: > 2 h | AUC(0-inf) [9]: 678 ng·h/mL
